Measured values as given in paper PMC4777217, “Modelling the Tox21 10 K chemical profiles for in vivo toxicity prediction and mechanism characterization” (Nature Communications, 2016).
One block for each compound: values may come before it.

Key:
p53 = test: P53-bla qHTS assay (agonist mode); assay type: cell-based; conditions: Homo sapiens, positive control titration on every plate, mean, n=408
From the text: (§1) The assays were run in different modes (agonist versus antagonist) and/or formats (full length versus partial receptor) as detailed below, totaling 30 assays. […] All cell-based assays were multiplexed with a cell viability assay in the same assay well. Although bla-based assays were multiplexed with a luminescence-based cell viability assay (CellTiter-Glo viability assay, Promega), luc-based assays were multiplexed with a fluorescence-based cell viability assay (Cell Titer-Fluor viability assay, Promega). […]
(§2) In primary screening, all compounds were tested as three independent runs, with each of the three instances of a compound sample residing in a different location on a different compound plate across replicates. […] Briefly, raw plate reads for each titration point were first normalized relative to the positive control compound (agonist mode: 100%; antagonist mode: 0%) and dimethylsulphoxide (DMSO)-only wells (agonist mode: 0%; antagonist mode: -100%) as follows: % Activity=((Vcompound – VDMSO)/(Vpos – VDMSO)) × 100, where Vcompound denotes the compound well values, Vpos denotes the median value of the positive control wells and VDMSO denotes the median values of the DMSO-only wells, and then corrected by applying an in-house pattern correction algorithm using compound-free control plates (that is,, DMSO-only plates) at the beginning and end of the compound plate stack. […]

Mitochondria toxicity = conditions: read-out: Control AC50, positive control titration on every plate, mean, n=408
[1] = molecular target: T1, peroxisome proliferator-activated receptor delta (Homo sapiens, UniProt Q03181); test: PPAR-delta-bla agonist mode qHTS assay; assay type: cell-based; conditions: positive control titration on every plate, mean, n=408
T1 sequence (Q03181 211-441 limits assumed): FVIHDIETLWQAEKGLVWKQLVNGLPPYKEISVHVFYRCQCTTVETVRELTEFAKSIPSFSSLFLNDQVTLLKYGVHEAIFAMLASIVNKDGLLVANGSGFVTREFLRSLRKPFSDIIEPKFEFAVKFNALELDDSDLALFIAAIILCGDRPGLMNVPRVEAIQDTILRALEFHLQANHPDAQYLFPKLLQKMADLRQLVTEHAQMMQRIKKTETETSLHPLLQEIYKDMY
From the text: as §1, §2

[2] = test system: antioxidant responsive element; test: ARE-bla qHTS assay (agonist mode); assay type: cell-based; conditions: Homo sapiens, positive control titration on every plate, mean, n=408
From the text: as §1, §2

[3] = molecular target: T1, peroxisome proliferator-activated receptor delta; test: PPAR-delta-bla antagonist mode qHTS assay; assay type: cell-based; conditions: positive control titration on every plate, mean, n=408
From the text: as §1, §2

[4] = test system: heat-shock factor response element; test: HSE-bla qHTS assay (agonist mode); assay type: cell-based, human; conditions: positive control titration on every plate, mean, n=408
From the text: (§3) All cell-based assays were multiplexed with a cell viability assay in the same assay well. Although bla-based assays were multiplexed with a luminescence-based cell viability assay (CellTiter-Glo viability assay, Promega), luc-based assays were multiplexed with a fluorescence-based cell viability assay (Cell Titer-Fluor viability assay, Promega). […] A number of stress response pathway assays, including ATAD5-luc[33], a genotoxicity assay, p53-bla, antioxidant responsive element (ARE-bla)[34] and heat-shock factor response element (HSE-bla) assays, were screened in agonist mode.
(§4) In primary screening, all compounds were tested as three independent runs, with each of the three instances of a compound sample residing in a different location on a different compound plate across replicates. […] Analysis of compound concentration–response data was performed as previously described[5]. […] Compound reproducibility was assessed by calculating the reproducibility of the curve ranks of each compound generated from the triplicate runs[9].

[5] = molecular target: aryl hydrocarbon receptor (Homo sapiens, UniProt P35869); test: AhR-luc qHTS assay; assay type: cell-based; conditions: positive control titration on every plate, mean, n=408
Sequence of aryl hydrocarbon receptor (P35869 11-848): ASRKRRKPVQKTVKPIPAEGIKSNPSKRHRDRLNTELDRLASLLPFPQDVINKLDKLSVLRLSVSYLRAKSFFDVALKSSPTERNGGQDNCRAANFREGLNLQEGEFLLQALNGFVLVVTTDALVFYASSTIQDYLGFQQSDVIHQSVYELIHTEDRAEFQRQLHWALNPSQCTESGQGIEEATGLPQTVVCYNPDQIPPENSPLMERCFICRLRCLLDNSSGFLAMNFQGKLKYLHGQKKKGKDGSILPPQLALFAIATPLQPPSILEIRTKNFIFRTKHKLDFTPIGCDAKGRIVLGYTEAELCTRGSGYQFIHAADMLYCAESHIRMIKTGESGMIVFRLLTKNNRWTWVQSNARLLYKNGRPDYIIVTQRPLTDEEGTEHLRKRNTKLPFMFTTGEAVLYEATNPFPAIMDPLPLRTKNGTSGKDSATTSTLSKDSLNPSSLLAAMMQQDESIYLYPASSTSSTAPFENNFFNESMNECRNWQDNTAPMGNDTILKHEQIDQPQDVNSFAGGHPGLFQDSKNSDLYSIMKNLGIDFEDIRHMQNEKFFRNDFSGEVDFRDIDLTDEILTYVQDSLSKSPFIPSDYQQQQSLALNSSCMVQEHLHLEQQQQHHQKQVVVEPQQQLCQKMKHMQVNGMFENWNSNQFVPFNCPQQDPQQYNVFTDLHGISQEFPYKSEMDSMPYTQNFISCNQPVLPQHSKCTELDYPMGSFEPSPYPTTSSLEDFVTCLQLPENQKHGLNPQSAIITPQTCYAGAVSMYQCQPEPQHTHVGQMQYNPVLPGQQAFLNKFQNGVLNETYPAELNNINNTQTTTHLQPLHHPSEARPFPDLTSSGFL
From the text: as §3, §4

DT40 WT cells = test: DT40 WT cell viability assay; assay type: cell-based, chicken; conditions: positive control titration on every plate, mean, n=408
DT40 Rad54/Ku70 cells = test: DT40 Rad54/Ku70 mutant cell viability assay; assay type: cell-based, chicken; conditions: positive control titration on every plate, mean, n=408
DT40 Rev3 cells = test: DT40 Rev3 cell viability assay; assay type: cell-based, chicken; conditions: positive control titration on every plate, mean, n=408
ATAD5 = test: ATAD5-luc genotoxicity assay (agonist mode); assay type: cell-based; conditions: Homo sapiens, positive control titration on every plate, mean, n=408
From the text: as §3, §4

[6] = molecular target: T2, peroxisome proliferator-activated receptor gamma (Homo sapiens, UniProt P37231); test: PPAR-gamma-bla antagonist mode qHTS assay; assay type: cell-based; conditions: positive control titration on every plate, mean, n=408
T2 sequence (P37231 238-505 limits assumed): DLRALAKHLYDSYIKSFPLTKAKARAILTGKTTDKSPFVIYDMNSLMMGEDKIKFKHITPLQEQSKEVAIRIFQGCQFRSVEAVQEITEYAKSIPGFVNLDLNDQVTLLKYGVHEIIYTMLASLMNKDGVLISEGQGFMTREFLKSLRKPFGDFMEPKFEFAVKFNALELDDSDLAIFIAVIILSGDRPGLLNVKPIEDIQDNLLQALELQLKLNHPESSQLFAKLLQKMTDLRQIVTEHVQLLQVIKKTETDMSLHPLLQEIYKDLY
From the text: as §1, §2

SMILES: CO[C@@]12[C@H](COC(N)=O)C3=C(C(=O)C(C)=C(N)C3=O)N1C[C@@H]1N[C@@H]12 [Mitomycin C]
AC50 (p53): 1530 nM

SMILES: N#CC(C#N)=NNc1ccc(OC(F)(F)F)cc1 [FCCP]
AC50 (Mitochondria toxicity): 96.2 nM

AC50 [1]: 36.4 nM
SMILES: CCCc1c(OCCCOc2ccc(OCC(=O)O)cc2)ccc(C(C)=O)c1O [L-165,041]

SMILES: O=c1cc(-c2ccccc2)oc2ccc3ccccc3c12 [β-Naphthoflavone]
AC50 [2]: 1950 nM

AC50 [3]: 38500 nM
SMILES: CC(C)c1ccc2c(c1)c(SC(C)(C)C)c(CC(C)(C)C(=O)O)n2Cc1ccc(Cl)cc1 [MK886]

SMILES: C=CCNC1=C2C[C@@H](C)C[C@H](OC)[C@H](O)[C@@H](C)/C=C(\C)[C@H](OC(N)=O)[C@@H](OC)/C=C\C=C(/C)C(=O)NC(=CC1=O)C2=O [17-AAG]
AC50 [4]: 45.3 nM

AC50 [5]: 49500 nM
SMILES: COc1ccc2[nH]c([S+]([O-])Cc3ncc(C)c(OC)c3C)nc2c1 (stereo not drawn) [Omeprazole]

SMILES: CCCCCCCC[N+](CCCCCCCC)(CCCCCCCC)CCCCCCCC [Tetra-octyl ammonium bromide]
AC50 (DT40 WT cells): 594 nM
AC50 (DT40 Rad54/Ku70 cells): 416 nM
AC50 (DT40 Rev3 cells): 440 nM

SMILES: O=c1[nH]c(=O)n([C@@H]2O[C@H](CO)[C@@H](O)[C@H]2O)cc1F [5-Fluorouridine]
AC50 (ATAD5): 2120 nM

AC50 [6]: 2.47 nM
SMILES: O=C(Nc1ccccc1)c1cc([N+](=O)[O-])ccc1Cl [GW9662]
